The target in the test is T1, CFTR (Homo sapiens, UniProt P13569, DEL508-508).
T1 construct: endogenous in cells; host or cells: primary human bronchial epithelial cells from CF subjects (F508del/MF-HBE), differentiated at air-liquid interface
Briefly: HBE2 assay: Ussing chamber assay of CFTR-mediated short-circuit currents. Conditions: F508del/MF-HBE cells, 18-24 hours, 20% human serum; for HBE2 Activity at 3 μM (%): 3 μM corrector; for HBE2 Activity at 3 μM (%) / Emax: with 44 nM potentiator; for EC50: corrector at a range of concentrations with 44 nM potentiator; for Emax: read-out: HBE2 Max activity (%). It counts as cell-based. The method, boiled down:
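F508del/MF-HBE cultured >14 days at air-liquid interface, mounted in Ussing chambers; transepithelial short-circuit current recorded under voltage clamp (Vhold=0 mV) at 37 °C. CFTR-mediated ISC (μA/cm^2) taken as peak forskolin response relative to steady-state current after inhibition; corrector activity assessed this way.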

By EC50 is commonly meant the concentration that produces a half-maximal response.

T1 sequence (P13569 with tags, fused parts or gaps DEL508-508): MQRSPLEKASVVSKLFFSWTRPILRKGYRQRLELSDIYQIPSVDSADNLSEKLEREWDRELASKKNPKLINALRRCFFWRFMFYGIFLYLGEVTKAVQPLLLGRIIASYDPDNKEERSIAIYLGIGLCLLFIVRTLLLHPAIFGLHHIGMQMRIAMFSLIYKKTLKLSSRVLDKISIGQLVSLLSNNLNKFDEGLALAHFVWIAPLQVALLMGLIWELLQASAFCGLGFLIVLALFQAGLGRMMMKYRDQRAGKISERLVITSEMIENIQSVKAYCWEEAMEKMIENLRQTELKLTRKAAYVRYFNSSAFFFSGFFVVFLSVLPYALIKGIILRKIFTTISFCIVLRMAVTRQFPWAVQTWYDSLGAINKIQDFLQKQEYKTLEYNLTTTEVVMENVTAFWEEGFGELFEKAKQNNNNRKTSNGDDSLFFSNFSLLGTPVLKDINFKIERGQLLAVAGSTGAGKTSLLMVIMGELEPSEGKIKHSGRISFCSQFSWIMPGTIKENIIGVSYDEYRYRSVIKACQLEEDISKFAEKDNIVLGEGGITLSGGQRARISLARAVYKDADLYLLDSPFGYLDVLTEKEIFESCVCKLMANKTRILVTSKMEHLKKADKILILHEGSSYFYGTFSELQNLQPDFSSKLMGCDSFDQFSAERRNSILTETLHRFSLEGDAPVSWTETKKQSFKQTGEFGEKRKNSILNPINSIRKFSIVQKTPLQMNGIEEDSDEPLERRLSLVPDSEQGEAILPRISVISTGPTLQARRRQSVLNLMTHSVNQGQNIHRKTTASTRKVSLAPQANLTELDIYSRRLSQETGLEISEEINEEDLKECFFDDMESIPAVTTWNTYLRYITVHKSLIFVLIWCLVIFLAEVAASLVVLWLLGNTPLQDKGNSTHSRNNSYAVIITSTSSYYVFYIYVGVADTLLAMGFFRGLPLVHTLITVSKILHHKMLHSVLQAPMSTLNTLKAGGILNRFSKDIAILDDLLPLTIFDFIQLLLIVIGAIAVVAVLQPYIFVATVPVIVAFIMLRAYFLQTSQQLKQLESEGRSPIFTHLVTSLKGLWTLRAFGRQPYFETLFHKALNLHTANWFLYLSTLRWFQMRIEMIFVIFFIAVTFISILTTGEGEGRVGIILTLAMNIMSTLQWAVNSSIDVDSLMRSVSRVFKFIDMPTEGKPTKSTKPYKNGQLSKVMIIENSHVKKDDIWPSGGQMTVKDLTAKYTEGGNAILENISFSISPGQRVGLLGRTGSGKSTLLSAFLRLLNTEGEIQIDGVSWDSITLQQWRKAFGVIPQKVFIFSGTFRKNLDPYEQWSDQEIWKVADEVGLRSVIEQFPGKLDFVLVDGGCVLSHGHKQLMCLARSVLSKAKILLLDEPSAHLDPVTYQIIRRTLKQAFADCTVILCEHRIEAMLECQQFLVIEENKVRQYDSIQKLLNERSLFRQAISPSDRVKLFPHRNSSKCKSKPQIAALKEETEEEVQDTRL

As for `Cc1cccc(C)c1-c1cc2nc(n1)NS(=O)(=O)c1cccc(c1)C(=O)N(Cc1cncc(N(C)CC(C)C)n1)[C@H](CC1CCC1)CO2` [Compound 1712], the “HBE2 Activity at 3 μM (%)” value is reported as “+++ (+++ is >60+)”, the EC50 is < 1000 nM and the Emax was > 60%. On to `Cc1cccc(C)c1-c1cc2nc(n1)NS(=O)(=O)c1cccc(c1)C(=O)N(Cc1cncc(N(C)CC(C)C)n1)[C@H](CC(C)C)CO2` [Compound 1713], for which the “HBE2 Activity at 3 μM (%)” value was “+++ (+++ is >60+)”.

For the compound `Cc1cccc(C)c1-c1cc2nc(n1)NS(=O)(=O)c1cccc(c1)C(=O)N(Cc1cnc(C)c(N(C)C3CCC3)n1)[C@H](CC(C)(C)C)CO2` [Compound 1714], the “HBE2 Activity at 3 μM (%)” value was “+++ (+++ is >60+)”. For `Cc1cccc(C)c1-c1cc2nc(n1)NS(=O)(=O)c1cccc(c1)C(=O)N(Cc1nccc(N(C)C(C)C)n1)[C@H](CCC(C)(C)C)CO2` [Compound 1715], the “HBE2 Activity at 3 μM (%)” value is “+++ (+++ is >60+)”. Turning to `Cc1cccc(C)c1-c1cc2nc(n1)NS(=O)(=O)c1cccc(c1)C(=O)N(Cc1cncc(N3CCC[C@H]3C(C)C)n1)[C@H](CCC(C)(C)C)CO2` [Compound 1716], the “HBE2 Activity at 3 μM (%)” value was “+++ (+++ is >60+)”, the 50% effective concentration (EC50) is < 1000 nM and the Emax was > 60%.

Regarding `Cc1cccc(C)c1-c1cc2nc(n1)NS(=O)(=O)c1cccc(c1)C(=O)N(Cc1cncc(N(C)CC(C)C)n1)[C@H](CCC1CC1)CO2` [Compound 1717], the “HBE2 Activity at 3 μM (%)” value is listed as “+++ (+++ is >60+)”.

Regarding `Cc1cccc(C)c1-c1cc2nc(n1)NS(=O)(=O)c1cccc(c1)C(=O)N(Cc1cncc(N(C)C(C)C)n1)[C@H](CCC1CC1)CO2` [Compound 1718], the “HBE2 Activity at 3 μM (%)” value is “+++ (+++ is >60+)”. Turning to `Cc1cccc(C)c1-c1cc2nc(n1)NS(=O)(=O)c1cccc(c1)C(=O)N(Cc1cncc(N(C)CC(C)(C)C)n1)[C@H](CCC1CC1)CO2` [Compound 1719], the “HBE2 Activity at 3 μM (%)” value is “+++ (+++ is >60+)”, the concentration for a half-maximal effect (EC50) was < 1000 nM and the Emax is > 60%.

With `Cc1cccc(C)c1-c1cc2nc(n1)NS(=O)(=O)c1cccc(c1)C(=O)N(Cc1cncc(N3CCC[C@H]3C(C)C)n1)[C@H](CCC1CC1)CO2` [Compound 1720], the “HBE2 Activity at 3 μM (%)” value is listed as “+++ (+++ is >60+)”, the EC50 was < 1000 nM and the Emax is > 60%. As for `CC[C@@H]1CCN1c1cncc(CN2C(=O)c3cccc(c3)S(=O)(=O)Nc3nc(cc(-c4c(C)cccc4C)n3)OC[C@H]2CC(C)(C)C)n1` [Compound 1721], the “HBE2 Activity at 3 μM (%)” value is on record as “+++ (+++ is >60+)”. For `Cc1cccc(C)c1-c1cc2nc(n1)NS(=O)(=O)c1cccc(c1)C(=O)N(Cc1cncc(N3CCCC[C@H]3C)n1)[C@H](CCC(C)(C)C)CO2` [Compound 1725], the “HBE2 Activity at 3 μM (%)” value is listed as “+++ (+++ is >60+)”, the EC50 was < 1000 nM and the Emax was > 60%. For `Cc1cccc(C)c1-c1cc2nc(n1)NS(=O)(=O)c1cccc(c1)C(=O)N(Cc1cncc(N3CC[C@H]3C)n1)[C@H](CCC(C)(C)C)CO2` [Compound 1726], the “HBE2 Activity at 3 μM (%)” value is listed as “+++ (+++ is >60+)”, the EC50 is < 1000 nM and the Emax was > 60%. For `CCC(C)CN(C)c1cncc(CN2C(=O)c3cccc(c3)S(=O)(=O)Nc3nc(cc(-c4c(C)cccc4C)n3)OC[C@H]2CC(C)(C)C)n1` (stereo partly drawn) [Compound 1727], the “HBE2 Activity at 3 μM (%)” value is given as “+++ (+++ is >60+)”. As to `Cc1cccc(C)c1-c1cc2nc(n1)NS(=O)(=O)c1cccc(c1)C(=O)N(Cc1cncc(N3[C@H](C)C[C@@H]3C)n1)[C@H](CC(C)(C)C)CO2` [Compound 1728], the “HBE2 Activity at 3 μM (%)” value is reported as “+++ (+++ is >60+)”.

Regarding `Cc1cc(C)c(-c2cc3nc(n2)NS(=O)(=O)c2cccc(c2)C(=O)N(Cc2cncc(N(C)C4CCC4)n2)[C@H](CC(C)(C)C)CO3)c(C)c1` [Compound 1729], the “HBE2 Activity at 3 μM (%)” value is given as “+++ (+++ is >60+)”.

(Values after patent publication US20240150377A1, “MODULATORS OF CYSTIC FIBROSIS TRANSMEMBRANE CONDUCTANCE REGULATOR” (VERTEX PHARMACEUTICALS INCORPORATED, priority 2020, published 2024).)
